Experimental data: ChEMBL document CHEMBL1201862, “PubChem BioAssay data set” (2004)
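Cultured in 96-well plates, cells were exposed to test compound for 48 hours across five concentrations. Abbreviation: GI50, concentration required for 50% inhibition of growth.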 Active and inactive are the calls of the source. Rule as the data show it: active = GI50 up to about 1.1 µM and inactive = higher.

Experiments:
Test in all cases: NCI-60 cell line screen, 48 h
[1] = tested on: 786-0
[2] = tested on: A498
[3] = tested on: A549
[4] = tested on: ACHN
[5] = tested on: CAKI-1
[6] = tested on: CCRF-CEM
[7] = tested on: COLO 205
[8] = tested on: DLD-1
[9] = tested on: DMS-114
[10] = tested on: DMS-273
[11] = tested on: EKVX
[12] = tested on: HCC 2998
[13] = tested on: HCT-116
[14] = tested on: HCT-15
[15] = tested on: HL-60
[16] = tested on: HOP-18
[17] = tested on: HOP-62
[18] = tested on: HOP-92
[19] = tested on: HT-29
[20] = tested on: IGROV-1
[21] = tested on: K562
[22] = tested on: KM-20L2
[23] = tested on: KM12
[24] = tested on: LOX IMVI
[25] = tested on: LXFL 529
[26] = tested on: M14
[27] = tested on: M19-MEL
[28] = tested on: MOLT-4
[29] = tested on: Malme-3M
[30] = tested on: NCI-H226
[31] = tested on: NCI-H23
[32] = tested on: NCI-H460
[33] = tested on: NCI-H522
[34] = tested on: OVCAR-3
[35] = tested on: OVCAR-4
[36] = tested on: OVCAR-5
[37] = tested on: OVCAR-8
[38] = tested on: RPMI-8226
[39] = tested on: RXF 393
[40] = tested on: RXF 631
[41] = tested on: SF-268
[42] = tested on: SF-295
[43] = tested on: SF-539
[44] = tested on: SK-MEL-28
[45] = tested on: SK-MEL-2
[46] = tested on: SK-MEL-5
[47] = tested on: SK-OV-3
[48] = tested on: SN12C
[49] = tested on: SNB-19
[50] = tested on: SNB-75
[51] = tested on: SNB-78
[52] = tested on: SR
[53] = tested on: SW-620
[54] = tested on: TK-10
[55] = tested on: U-251
[56] = tested on: UACC-257
[57] = tested on: UACC-62
[58] = tested on: UO-31
[59] = tested on: XF498

**Q.** What does the source list for NCCc1ccc2oc3cc(=O)c4ccccc4c-3nc2c1?
**A.** GI50 [1]: 2.12 µM (inactive); GI50 [2]: 13.3 µM (inactive); GI50 [3]: 0.478 µM (active); GI50 [4]: 2.61 µM (inactive); GI50 [5]: 11.5 µM (inactive); GI50 [6]: 1.79 µM (inactive); GI50 [7]: 0.428 µM (active); GI50 [8]: 2.04 µM (inactive); GI50 [9]: 1.08 µM (active); GI50 [10]: 1.36 µM (inactive); GI50 [11]: 11.6 µM (inactive); GI50 [12]: 2.37 µM (inactive); GI50 [13]: 1.41 µM (inactive); GI50 [14]: 0.966 µM; GI50 [15]: 1.68 µM (inactive); GI50 [16]: 1 µM (active); GI50 [17]: 3.09 µM (inactive); GI50 [18]: 7.71 µM (inactive); GI50 [19]: 1.82 µM (inactive); GI50 [20]: 2.59 µM (inactive); GI50 [21]: 2.02 µM (inactive); GI50 [22]: 2.75 µM (inactive); GI50 [23]: 2.67 µM (inactive); GI50 [24]: 1.24 µM (inactive); GI50 [25]: 2.58 µM (inactive); GI50 [26]: 1.71 µM (inactive); GI50 [27]: 0.3 µM (active); GI50 [28]: 1.9 µM (inactive); GI50 [29]: 2.12 µM (inactive); GI50 [30]: 5.19 µM (inactive); GI50 [31]: 0.746 µM (active); GI50 [32]: 0.9 µM (active); GI50 [33]: 2.59 µM (inactive); GI50 [34]: 2.16 µM (inactive); GI50 [35]: 4.68 µM (inactive); GI50 [36]: 6.14 µM (inactive); GI50 [37]: 4.91 µM (inactive); GI50 [38]: 2.55 µM (inactive); GI50 [39]: 2.84 µM (inactive); GI50 [40]: 2.96 µM (inactive); GI50 [41]: 3.85 µM (inactive); GI50 [42]: 2.3 µM (inactive); GI50 [43]: 2.6 µM (inactive); GI50 [44]: 3.81 µM (inactive); GI50 [45]: 1.71 µM (inactive); GI50 [46]: 0.705 µM (active); GI50 [47]: 12.1 µM (inactive); GI50 [48]: 2.22 µM (inactive); GI50 [49]: 2.71 µM (inactive); GI50 [50]: 2.22 µM (inactive); GI50 [51]: 9.35 µM (inactive); GI50 [52]: 1.62 µM (inactive); GI50 [53]: 2.19 µM (inactive); GI50 [54]: 14 µM (inactive); GI50 [55]: 2.62 µM (inactive); GI50 [56]: 2.37 µM (inactive); GI50 [57]: 4.37 µM (inactive); GI50 [58]: 2.14 µM (inactive); GI50 [59]: 3.41 µM (inactive)
